Measured values: paper PMC11314561, “Design and Synthesis of Novel Aminoindazole-pyrrolo[2,3-b]pyridine Inhibitors of IKKα That Selectively Perturb Cellular Non-Canonical NF-κB Signalling” (Molecules, 2024)

Legend:
Assay in all cases: kinase panel
Assay type in all cases: biochemical
CaMKI(h) = CaMKI(h) (Homo sapiens, UniProt Q14012)
Outline: (§1)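 % inhibition read-out; kinome panel of 231 kinases; one analogue run on a selected 98-kinase subset only.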

FGFR1(h) = FGFR1(h) (Homo sapiens, UniProt P11362)
Chain of FGFR1(h) (P11362 22-822): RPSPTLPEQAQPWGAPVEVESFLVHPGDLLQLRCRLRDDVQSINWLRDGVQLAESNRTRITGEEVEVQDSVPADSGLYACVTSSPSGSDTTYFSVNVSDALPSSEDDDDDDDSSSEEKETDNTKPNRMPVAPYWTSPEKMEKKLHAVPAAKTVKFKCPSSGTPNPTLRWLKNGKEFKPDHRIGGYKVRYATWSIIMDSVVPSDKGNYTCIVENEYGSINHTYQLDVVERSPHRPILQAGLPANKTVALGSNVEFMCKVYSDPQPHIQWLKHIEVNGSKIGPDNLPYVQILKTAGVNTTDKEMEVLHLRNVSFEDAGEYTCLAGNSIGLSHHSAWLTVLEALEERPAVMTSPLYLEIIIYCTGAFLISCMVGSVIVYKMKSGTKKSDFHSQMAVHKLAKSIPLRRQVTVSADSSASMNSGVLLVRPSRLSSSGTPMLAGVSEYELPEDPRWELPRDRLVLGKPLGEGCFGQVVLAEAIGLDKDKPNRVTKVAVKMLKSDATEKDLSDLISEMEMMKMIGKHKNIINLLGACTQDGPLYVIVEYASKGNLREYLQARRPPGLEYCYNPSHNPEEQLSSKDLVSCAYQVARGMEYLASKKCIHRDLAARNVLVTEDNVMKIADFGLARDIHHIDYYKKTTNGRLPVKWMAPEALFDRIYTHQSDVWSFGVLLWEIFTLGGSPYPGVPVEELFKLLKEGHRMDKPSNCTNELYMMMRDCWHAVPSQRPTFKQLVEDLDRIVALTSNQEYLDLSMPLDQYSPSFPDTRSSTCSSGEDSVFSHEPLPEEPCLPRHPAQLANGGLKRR
Outline: as §1

Mer(h) = target: T1, Mer(h) (Homo sapiens, UniProt Q12866)
T1 sequence (Q12866 21-999): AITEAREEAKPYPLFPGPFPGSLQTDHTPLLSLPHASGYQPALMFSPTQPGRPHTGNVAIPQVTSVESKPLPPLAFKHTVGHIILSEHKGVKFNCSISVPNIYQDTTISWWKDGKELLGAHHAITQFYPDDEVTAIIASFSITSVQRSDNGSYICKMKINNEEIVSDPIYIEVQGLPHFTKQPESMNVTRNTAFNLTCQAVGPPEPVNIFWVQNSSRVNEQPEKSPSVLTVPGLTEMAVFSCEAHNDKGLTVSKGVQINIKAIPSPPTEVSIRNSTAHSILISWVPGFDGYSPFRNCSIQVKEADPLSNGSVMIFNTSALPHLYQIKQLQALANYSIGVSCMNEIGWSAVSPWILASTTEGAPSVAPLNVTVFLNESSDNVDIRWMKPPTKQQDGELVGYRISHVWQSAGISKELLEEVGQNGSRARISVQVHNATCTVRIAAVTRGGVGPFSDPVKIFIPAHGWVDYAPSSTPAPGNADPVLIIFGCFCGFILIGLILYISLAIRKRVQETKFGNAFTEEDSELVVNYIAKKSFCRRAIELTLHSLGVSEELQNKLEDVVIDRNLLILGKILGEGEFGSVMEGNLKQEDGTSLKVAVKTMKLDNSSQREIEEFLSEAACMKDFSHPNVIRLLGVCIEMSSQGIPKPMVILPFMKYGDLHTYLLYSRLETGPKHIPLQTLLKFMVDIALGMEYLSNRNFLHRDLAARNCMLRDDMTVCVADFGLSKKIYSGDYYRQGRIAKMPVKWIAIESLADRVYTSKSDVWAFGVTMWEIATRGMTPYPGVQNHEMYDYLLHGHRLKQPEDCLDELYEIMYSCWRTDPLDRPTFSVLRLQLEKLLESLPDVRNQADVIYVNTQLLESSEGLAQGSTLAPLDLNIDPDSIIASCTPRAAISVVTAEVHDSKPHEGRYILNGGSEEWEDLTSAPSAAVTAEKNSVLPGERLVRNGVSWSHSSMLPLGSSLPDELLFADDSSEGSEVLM
Outline: as §1

PDK1(h) = target: T2, PDK1(h) (Homo sapiens, UniProt O15530)
T2 sequence (O15530 1-556): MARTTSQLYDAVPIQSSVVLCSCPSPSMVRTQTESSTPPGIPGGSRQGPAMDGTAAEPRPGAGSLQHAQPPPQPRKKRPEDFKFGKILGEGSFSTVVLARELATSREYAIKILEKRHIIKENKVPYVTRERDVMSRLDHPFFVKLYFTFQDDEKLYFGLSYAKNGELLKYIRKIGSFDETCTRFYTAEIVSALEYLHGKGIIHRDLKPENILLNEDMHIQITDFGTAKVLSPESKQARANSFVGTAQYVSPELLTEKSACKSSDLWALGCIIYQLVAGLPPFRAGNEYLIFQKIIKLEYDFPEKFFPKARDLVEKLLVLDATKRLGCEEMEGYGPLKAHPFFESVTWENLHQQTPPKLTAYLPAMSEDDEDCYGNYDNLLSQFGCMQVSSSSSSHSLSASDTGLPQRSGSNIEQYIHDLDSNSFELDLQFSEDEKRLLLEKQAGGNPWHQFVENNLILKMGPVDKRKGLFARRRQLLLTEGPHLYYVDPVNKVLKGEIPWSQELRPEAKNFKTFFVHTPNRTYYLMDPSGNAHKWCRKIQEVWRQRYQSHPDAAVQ
Outline: as §1

mTOR(h) = mTOR(h) (Homo sapiens, UniProt P42345)
Outline: as §1

Chain of CaMKI(h) (Q14012 whole entry): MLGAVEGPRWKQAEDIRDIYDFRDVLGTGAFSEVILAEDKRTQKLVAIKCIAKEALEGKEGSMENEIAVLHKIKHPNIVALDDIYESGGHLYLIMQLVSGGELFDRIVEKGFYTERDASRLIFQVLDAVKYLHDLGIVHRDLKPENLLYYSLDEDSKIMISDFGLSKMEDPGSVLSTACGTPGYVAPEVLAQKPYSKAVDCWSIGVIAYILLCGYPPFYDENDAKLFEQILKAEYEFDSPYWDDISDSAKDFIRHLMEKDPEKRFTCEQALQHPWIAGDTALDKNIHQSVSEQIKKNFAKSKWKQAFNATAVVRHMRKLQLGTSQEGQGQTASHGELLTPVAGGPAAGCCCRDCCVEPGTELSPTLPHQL

| inhibition at 1 µM (CaMKI(h)) | inhibition at 1 µM (FGFR1(h)) | inhibition at 1 µM (Mer(h)) | inhibition at 1 µM (PDK1(h)) | inhibition at 1 µM (mTOR(h)) | Compound |
| --- | --- | --- | --- | --- | --- |
| 9% | 84% | 88% | 25% | 10% | Nc1n[nH]c2ccc(-c3ccnc4[nH]c(-c5ccccc5)cc34)cc12 [Compound 4] |
| -6% | 64% | 27% | 7% | 8% | Nc1n[nH]c2ccc(-c3ccnc4[nH]c(-c5cccc(OCc6ccccc6)c5)cc34)cc12 [Compound 5r [SU1261]] |
| 1% | -4% | 12% | 18% | 0% | Nc1n[nH]c2ccc(-c3ccnc4[nH]c(-c5ccnc(OCc6ccccc6)c5)cc34)cc12 [Compound 6g [SU1349]] |
